We go through 3 compounds from patent US4049495A, “Physiologically active substances and fermentative process for producing the same” (Sankyo Company Limited, priority 1974, dated 1977).

In one data set the test system is cholesterol biosynthesis. The data set is described as follows: inhibition of cholesterol biosynthesis in vitro (rat liver slice, radioactive acetic acid). The format is cell-based. The conditions noted are these: 1 h, 37° C., 60 minutes, read-out: concentration exhibiting about 50% inhibition of cholesterol biosynthesis. The protocol: I. The activity in vitro on inhibition of cholesterol biosynthesis of the substances ML-236 may be assayed by the following method. Slice of rat liver and radioactive acetic acid are brought to interaction at 37° C. for 60 minutes, the radioactive cholesterol thus biosynthesized is saponified and separated as precipitates with digitonin and then its radioactivity is measured to determine the produced cholesterol amount. Separately, the same procedures as above are employed except that ML-236 is added at the beginning of the reaction, thereby the biosynthesized cholesterol amount being determined. Thus, an effect of ML-236 can be quantitively determined. (See Bricker et al.: The Journal of Biological Chemistry, 247, 4914, 1972).

The test system of data set [1] is cholesterol and neutral lipid levels in blood serum. Briefly: lowering of cholesterol and neutral lipid in blood serum of rats, oral ML-236A in gum arabic. The conditions noted are these: 5 mg./kg. in gum arabic, vs gum arabic alone. It is filed as in vivo. The protocol:
2. Two of four groups of rats, each group consisting of 5 animals, were orally given one dose of 5 mg./kg. of ML-236A suspended in gum arabic. After 3 hours and 18 hours from administration, animals were sacrificed by bleeding and blood was collected. Cholesterol and neutral lipid levels in blood serum were determined by a conventional method.

The nature of data set [2]: solubility in organic solvents. It is filed as physicochemical.
Data set [3] has as its system cholesterol levels in blood and liver. The data set is described as follows: lowering of cholesterol in blood and liver of Triton WR 1339-treated rats. The format is in vivo. The conditions noted are these: 20 mg./kg. intraperitoneal, with Triton WR 1339 200 mg./kg. i.v., 24 hours, vs Triton alone. Here is the method: 1. One of two groups of rats having an average weight of about 200 g., each group consisting of 5 animals, was individually given by intraveneous injection with 200 mg./kg. of Triton WR 1339 (trade name; available from Ruger Chemical Co., Ltd., U.S.A.; having an activity of increasing cholesterol level in blood) simultaneously with intraperitoneal administration of 20 mg./kg. of ML-236B. After 24 hours from administration, rats were sacrificed by bleeding, blood and liver were collected and their cholesterol and neutral lipid levels were determined by a conventional method.

Data set [4] has as its system cholesterol and neutral lipid levels in blood serum. Briefly: lowering of cholesterol and neutral lipid in blood serum of rats, oral ML-236B in physiological saline. The format is in vivo. The conditions noted are these: 80 mg./kg. powdery in physiological saline solution, vs saline. Here is the method: Moreover, one of two other groups of rats, each group consisting of 5 animals, were orally given 80 mg./kg. of powdery ML-236B in the form of a physiological saline solution. After 3 hours from administration, cholesterol and neutral lipid levels in blood serum were determined in the same manner as above.

The mark [5] stands for this setting: in methanol, ethanol, acetone, ethyl acetate, chloroform and benzene.
Setting [6] is: in n-hexane and petroleum ether.

≈ marks a conversion by molar mass, not a printed value.

On to `CC1C=CC2=CCCC(O)C2C1CCC1CC(O)CC(=O)O1` (centres unmarked) [ML-236A], for which the IC50 with cholesterol biosynthesis is about 0.04 µg/mL (≈ 0.131 µM). In addition, in data set [1] (3 hours), the “lowering of cholesterol level in blood serum after 3 hours” value came out at 13.5% and the “lowering of neutral lipid level in blood serum after 3 hours” value came to 49.5%. Besides, in data set [1] (18 hours), the “lowering of cholesterol level in blood serum after 18 hours” value is 13.5% and the “lowering of neutral lipid level in blood serum after 18 hours” value is on record as “not observed”. Moreover, in data set [2] (setting [5]), the Solubility result is recorded as “Soluble”. Further, in data set [2] (setting [6]), the Solubility entry is listed as “Insoluble”.
`CCC(C)C(=O)OC1CCC=C2C=CC(C)C(CCC3CC(O)CC(=O)O3)C21` (centres unmarked) [ML-236B]: in the data set on cholesterol biosynthesis, the IC50 was about 0.01 µg/mL (≈ 0.0256 µM). Further, in data set [3], the “lowering of cholesterol level in blood” value is on record as 14.2% and the “lowering of cholesterol level in liver” value is 10.1%. For the same compound, in data set [4], the “lowering of cholesterol level in blood serum after 3 hours” value stood at 20.0% and the “lowering of neutral lipid level in blood serum after 3 hours” value was found to be 44.2%. The Solubility entry in data set [2] (setting [5]) was “Soluble”. Further, the Solubility entry in data set [2] (setting [6]) was “Insoluble”.
On to `CC1C=CC2=CCCCC2C1CCC1CC(O)CC(=O)O1` (centres unmarked) [ML-236C], for which the IC50 with cholesterol biosynthesis is about 0.08 µg/mL (≈ 0.275 µM). Also, the Solubility result in data set [2] (setting [5]) is “Soluble”; in data set [2] (setting [6]), “Insoluble”.
